Experimental data: patent US8129356B2, “Bmx mediated signal transduction in irradiated vascular endothelium” (Vanderbilt University, priority 2007, dated 2012)
“Also recorded” adds a separate entry of the source.

Assays:
LLC tumor vasculature = assay: Tumor vascular window model; assay type: in vivo, C57BL/6 mice
Procedure: Tumor vascular window model. The tumor vascular window model technique is described in Edwards et al., 2002. Briefly, three mice for each group had tumors grown within a vascular window such that tumor vasculature could be visualized within window frames containing a coordinate system for serial photography. Animals were treated with LFM-A13 by i.p. injection 60 minutes prior to 2 Gy irradiation using an 80 kVp superficial X-ray machine (Pantak X-ray Generator; East Haven, Conn., United States of America). Serial color photographs were taken to document blood vessel appearance on days 0-7. Photographs were scanned and processed using ADOBE® PHOTOSHOP® software (Adobe Systems Inc., San Jose, Calif., United States of America) to mark the center of vessels, verified by an observer blinded to treatment groups. Vascular length density (VLD) was quantified for each microscopic field using IMAGE-PRO® Plus v. 5.1 software (Media Cybernetics, Inc. Silver Spring, Md., United States of America). The mean and standard error of VLD in each treatment group were calculated and plotted. All animals used were cared for according to Vanderbilt University's Institutional Animal Care and Use Committees guidelines.

Bmx [1] = molecular target: T1, Bmx (Homo sapiens, UniProt P51813); assay type: cell-based; conditions: 30 μM pre-incubation, 3 Gy
T1 construct: host or cells: HUVEC
T1 sequence (P51813 1-675): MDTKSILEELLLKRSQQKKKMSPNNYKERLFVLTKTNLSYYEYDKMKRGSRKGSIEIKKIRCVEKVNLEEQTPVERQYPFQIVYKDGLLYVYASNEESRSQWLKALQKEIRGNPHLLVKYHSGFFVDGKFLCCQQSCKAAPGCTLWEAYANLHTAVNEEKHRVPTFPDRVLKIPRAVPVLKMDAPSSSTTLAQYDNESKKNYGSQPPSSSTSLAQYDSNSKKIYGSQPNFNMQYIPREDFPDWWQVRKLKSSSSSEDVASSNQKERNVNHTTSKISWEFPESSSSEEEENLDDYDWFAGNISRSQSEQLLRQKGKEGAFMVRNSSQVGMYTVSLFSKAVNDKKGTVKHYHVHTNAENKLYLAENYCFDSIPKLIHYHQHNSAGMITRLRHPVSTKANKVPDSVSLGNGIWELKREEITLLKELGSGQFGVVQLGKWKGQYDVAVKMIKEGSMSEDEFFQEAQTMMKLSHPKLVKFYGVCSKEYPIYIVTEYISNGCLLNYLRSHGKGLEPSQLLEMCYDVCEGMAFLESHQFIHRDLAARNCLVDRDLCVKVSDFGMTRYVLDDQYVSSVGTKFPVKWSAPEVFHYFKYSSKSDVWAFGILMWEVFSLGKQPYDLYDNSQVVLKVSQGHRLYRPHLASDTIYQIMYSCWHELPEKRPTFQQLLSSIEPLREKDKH
Procedure: Immunoprecipitation and in vitro kinase assay. HUVECs of passage 3-6 were grown to 70-80% confluency and then serum starved for 5 hours. The cells were then treated with sham or 3 Gy irradiation. After treatment, the cells were incubated at 37° C. with 5% CO2 for the indicated times. For inhibition studies, inhibitor was added at a 1:1000 dilution 60 minutes prior to irradiation. Following incubation, the tissue culture dishes were placed on ice and washed twice with ice cold 1× Phosphate-buffered Saline (PBS) followed by lysis using 400 μM-PER containing protease and phosphatase inhibitors (Sigma-Aldrich Co.) for 5 minutes. The cells were scraped and transferred to Eppendorf tubes, vortexed for 20 seconds, and incubated on ice for 30 minutes. After clearing the lysate by centrifugation at 15,000 g for 15 minutes at 4° C., the supernatant was quantified for protein concentration using the bicinchoninic acid (BCA) method prior to immunoprecipitation. Immunoprecipitation was performed using the CATCH AND RELEASE® v 2.0 system (Upstate Group, LLC, Charlottesville, Va., United States of America) according to manufacturer's protocol with some modification.
Briefly, spin columns containing binding resin were prepared by washing twice with 1× wash buffer (2000 g/30 seconds). […] This was added to the capped spin column which was rotated end-over-end overnight at 4° C. […]

HUVEC [2] = assay: Endothelial cell tubule formation assay on MATRIGEL; assay type: cell-based, human; conditions: 30 μM plus 3 Gy, vs either treatment alone
Procedure: Endothelial cell tubule formation assay. HUVEC of passage 3-6 were grown to 70-80% confluency. Cells were then washed with 1×PBS and suspended by trypsinization. Cells were counted and adjusted to 2.5-5×10^4 cells/ml in media. 75 μl MATRIGEL™ (BD Biosciences) were plated into each well of a 96 well plate and allowed to polymerize at 37° C. Cell suspensions (200 μl; […]) were added to each well. After thirty minutes, DMSO control or LFM-A13 was added. Thirty minutes later, dishes were treated with sham or 3 Gy and were then incubated until tubules had formed in control plates (4-6 hours). Digital photographs were taken of individual wells and tubules were counted by an observer blinded to the treatment conditions. The mean and standard error were calculated (n=3).

HUVEC [3] = assay: Apoptosis assay, DAPI staining of nuclei; assay type: cell-based, human; conditions: 30 μM plus 3 or 6 Gy, 24 hours
Procedure: HUVEC were also assayed for apoptosis using a 4′,6-Diamidino-2-phenylindole (DAPI) staining of the nuclei to identify cells undergoing morphological changes. […] Cells were returned to the incubator for an additional 24 hr prior to DAPI staining. Multiple high powered fields (at least 7) were examined by an observer who was blinded to the experimental conditions for each of the cultures. […] The mean and standard error were calculated for each treatment group.

LLC hind limb tumors = assay: Tumor growth delay; assay type: in vivo, C57BL/6 mice; conditions: 5 consecutive days
Procedure: Tumor growth delay. LLC's were subcutaneously injected into the hind limb of C57/BL6 mice to form xenografts. When tumors grew to 200 mm^3, (approximately 7 days) the mice were treated with five consecutive daily treatments of i.p. LFM-A13 followed 45 minutes later by 3 Gy irradiation using an 80 kVp superficial x-ray generator. Serial measurements of tumor dimensions were taken by caliper and tumor volume was calculated using the modified ellipsoid formula (length×width×depth)/2. The mean and standard error were plotted using Microsoft Excel software.

HUVEC [4] = assay: Apoptosis assay, Annexin V/propidium iodide flow cytometry; assay type: cell-based, human; conditions: 24 hours
Procedure: Apoptosis assays. HUVEC were grown to 70-80% confluency prior to treatment with LFM-A13 or DMSO control. Cells were then irradiated with 0 or 3 Gy and harvested 24 hours after irradiation. Annexin V-FITC Apoptosis Detection kit (BD PharMingen, San Diego, Calif., United States of America) was used to stain cells (propidium iodide (50 ng) and annexin V-FITC (5 ng) were added to 10^5 cells) for flow cytometry according to manufacturer's protocol. For each treatment, the percent of cells undergoing apoptosis (±SE) was calculated. Camptothecin (5 μmol/L) treatment for 6 hours served as positive control

[5] = test system: Lewis Lung Carcinoma (LLC) cell line; assay: Clonogenic survival assay in LLC; assay type: cell-based; conditions: prior to 0, 2, 4, or 6 Gy
Procedure: (§1) Clonogenic survival. LLC's or passage 3-6 HUVECs were grown to 70-80% confluency. Cells were washed with 1×PBS, trypsin suspended, and were counted and adjusted to specific densities for each condition. The cells were plated on tissue culture plates and allowed to attach for 4 hours. LFM-A13 or DMSO was added at a 1:1000 dilution followed 60 min later by 0, 2, 4 or 6 Gy. Media was changed after irradiation. 10-14 days after irradiation, the plates were fixed with 70% ethanol and stained with 1% methylene blue. Colonies were then counted using a dissection microscopy with positive colonies containing at least 50 cells. Surviving fraction (SF) was calculated by the equation (number of colonies formed/number of cells plated)/(number of colonies for sham irradiated group/number of cells plated). Dose enhancing ratios were calculated by dividing the dose (Gy) for radiation alone by the dose for radiation plus treatment (normalized for plating efficiency of treatment) for which a SF of 0.2 is achieved.

[6] = murine studies, previously published; cited from earlier work
Bmx [7] = molecular target: T1, Bmx; conditions: HUVEC, dose of 25 μM; cited from earlier work
HUVEC [8] = assay: Endothelial closure assay (migration across a gap); assay type: cell-based, human
Procedure: Endothelial closure assay. HUVEC of passage 3-6 were grown on glass slides and were subjected to gap formation as described previously (Cuneo et al., 2007). Cells were treated with LFM-A13 or DMSO control prior to 0 or 3 Gy and incubated for the indicated times. Photographs of cell defect and surrounding cells were taken and relative cell density within the defect was calculated as follows: (number of cells/original cell defect area)/(number of cells/surrounding area).

HUVEC [9] = assay: Clonogenic survival assay in HUVEC; assay type: cell-based, human; conditions: 30 μM
Procedure: as §1, with “LFM-A13 or DMSO was added at a 1:1000 dilution followed 60 min later by 0, 2, 4 or 6 Gy.” left out

[10] = test system: LLC hind limb tumor blood vessels; assay: Tumor immunohistochemistry (anti-CD34) in hind limb xenograft; assay type: in vivo, C57BL/6 mice; conditions: 50 mg/kg i.p. daily, 45 minutes before 3 Gy, five treatments
Procedure: Tumor immunohistochemistry. LLC's were subcutaneously injected into the hind limb of C57BL/6 mice to form xenografts. When tumors grew to 200 mm^3, (approximately 7 days) the mice were treated with five consecutive daily treatments of i.p. LFM-A13 followed 45 minutes later by 3 Gy irradiation using an 80 kVp superficial x-ray generator. Twelve hours following the last radiation treatment, mice were sacrificed and tumors were harvested, fixed in paraffin, and sectioned by the Vanderbilt University Immunohistochemistry Core Facility as described previously (see Cuneo et al., 2007). Immunostaining was with goat anti-CD34 (Santa Cruz Biotechnology) and microvascular photos were analyzed using IMAGE-PRO® software with pixel number quantified.

HUVEC [11] = assay: In vitro studies disclosed herein, comparison of Tec family inhibitors; assay type: cell-based, human

| SMILES | tumor vascular window blood vessels, drug alone (LLC tumor vasculature; 50 mg/kg i.p. alone) | tumor blood vessels (mean vascular length density), combination with 2 Gy (LLC tumor vasculature; single 50 mg/kg i.p. prior to 2 Gy) | radiation-induced Bmx activation (autophosphorylation) (Bmx [1]) | number of tubules formed, combination with 3 Gy (HUVEC [2]) | percent of apoptotic cells, combination with irradiation (HUVEC [3]) | tumor growth delay, combination with 3 Gy (LLC hind limb tumors; 50 mg/kg i.p. 45 minutes prior to 3 Gy) | tumor growth delay, drug alone (LLC hind limb tumors; 50 mg/kg i.p., sham irradiation) | apoptosis, combination with 3 Gy (HUVEC [4]; 30 μM plus 3 Gy) | early and late apoptosis, drug alone (HUVEC [4]; 30 μM, sham irradiation) | clonogenic survival compared to DMSO control [5] | tolerability [6] | VEGF induced signaling through Bmx inhibition (Bmx [7]) | endothelial cell closure (relative cell density in gap), drug alone (HUVEC [8]; 30 μM alone, 12 hours and 24 hours, vs vehicle control) | endothelial cell closure, combination with 3 Gy (HUVEC [8]; 30 μM for 45 minutes prior to 3 Gy, 12 and 24 hours) | radiosensitization (surviving fraction, survival curve shift) (HUVEC [9]; 45 minutes prior to 0, 2, 4, or 6 Gy, colonies over 10 days) | dose enhancing ratio (DER) (HUVEC [9]; dose ratio at SF of 0.2) | blood vessel formation (CD34 staining), combination with 3 Gy [10] | effectiveness relative to LFM-A13 (HUVEC [11]) |
| --- | --- | --- | --- | --- | --- | --- | --- | --- | --- | --- | --- | --- | --- | --- | --- | --- | --- | --- |
| C/C(O)=C(\C#N)C(=O)Nc1cc(Br)ccc1Br [LFM-A13, (2Z)-2-cyano-N-(2,5-dibromophenyl)-3-hydroxy-2-butenamide] | minimally inhibited | dramatic reduction in tumor blood vessels | attenuated the activation of Bmx | significant reduction (p<0.005) in tubules formed | enhancement of apoptosis | statistically significant enhancement of growth delay; also recorded: more than additive | small growth delay | statistically significant (p<0.001 vs. LFM-A13 or 3 Gy alone) increase in apoptosis | not capable of shifting cells into either early (Q4-1) or late (Q2-1) apoptosis | no difference in clonogenic survival | well-tolerated | block VEGF induced signaling | minimal effect on attenuating endothelial cell closure | greater than additive effect | radiosensitized HUVEC | 1.47 | most effective at attenuating blood vessel formation |  |
| CC1=C(O)C(=O)[C@@H]2O[C@@H]2C1=O [terreic acid] |  |  |  |  |  |  |  |  |  |  |  |  |  |  |  |  |  | at least as effective as LFM-A13 |
